From BindingDB's records for doi:10.1016/j.bmcl.2014.09.005 (Rhône-Poulenc Rorer, 2014)

Test: Antagonist activity at CRTh2 receptor in human eosinophil assessed as inhibition of PGD2-induced cell shape change

IC50	Structure (SMILES)
58 nM	CCN(Cc1cc(C(F)(F)F)ccc1-c1cc(CC(=O)O)cc2cnn(C)c12)C(=O)C1CC1
43 nM	CCN(Cc1cc(C(F)(F)F)ccc1-c1cc(CC(=O)O)cc2cn(C)nc12)C(=O)C1CC1
63 nM	CCN(Cc1cc(C(F)(F)F)ccc1-c1cn(CC(=O)O)c2ccccc12)C(=O)C1CC1
14 nM	CCN(Cc1cc(C(F)(F)F)ccc1-c1cn(CC(=O)O)c2cccnc12)C(=O)C1CC1
8 nM	CCN(Cc1cc(C(F)(F)F)ccc1-c1cn(CC(=O)O)c2ccncc12)C(=O)C1CC1
20 nM	CCN(Cc1cc(C(F)(F)F)ccc1-n1cc(CC(=O)O)c2cccnc21)C(=O)C1CC1
19 nM	CCN(Cc1cc(C(F)(F)F)ccc1-c1cc(CC(=O)O)c2ccncn12)C(=O)C1CC1
94 nM	CCN(Cc1cc(C(F)(F)F)ccc1-c1nc(CC(=O)O)c2ccccn12)C(=O)C1CC1
13 nM	CCN(Cc1cc(C(F)(F)F)ccc1-c1cc(CC(=O)O)ccc1OC)C(=O)C1CC1
